Laboratory results published in patent US8481750B2 (Boehringer Ingelheim International GmbH, priority 2009, dated 2013).

These compounds were tested against LFA-1 binding to ICAM-1 (Homo sapiens, UniProt P05107+P20701) (assay: Inhibition of LFA-1 binding to ICAM-1 (LFA-1/Biotin-sICAM-1 AlphaScreen molecular assay)). Conditions: highest compound concentration 1 μM in 1% DMSO, 37° C., 90 minutes.
Description: Assay to Determine Inhibition of LFA-1 Binding to ICAM-1
This assay protocol is designed to study the direct antagonism, by a test compound, of the interaction of ICAM-1 with the Leukointegrin CD18/CD11a (LFA-1).
The LFA-1/Biotin-sICAM-1 molecular assay measures the ability of test compounds to inhibit binding of LFA-1 to Biotinylated-sICAM using AlphaScreen technology (Ref: Wilson, J, Rossi, C P, Carboni, S, Fremaux, C, Perrin, D, Soto, C, Kosco-Vilbois, M, and Scheer, A: A Homogeneous 384-Well High-Throughput Binding Assay for a TNF Receptor Using Alphascreen Technology. J Biomol Screen 2003; 8:522-532) that uses TS2/4(anti-LFA-1)-custom conjugated AlphaLisa acceptor beads and streptavidin-coated donor beads from PerkinElmer. The assay was performed in white OptiPlates-384 in a volume of 60 μL using assay buffer (Dulbecco's PBS containing calcium and magnesium, 2 mM MgCl2, 0.1 mM PMSF, 0.1% BSA, pH 7.1). To each well, Biotin-sICAM was added followed by purified LFA-1 (in buffer of 50 mM triethylamine, 150 mM NaCl, 1% beta octylglucoside, 2 mM MgCl2 neutralized to pH with 1M Tris-HCl, pH 7.5). For compound testing, compound was added in 5 uL to the above in 25 uL. LFA-1 and Biotin-sICAM-1 were used at concentrations that would yield a signal to background ratio of 8-10. The highest concentration of compound was 1 μM in 1% DMSO. Positive controls were wells without compound containing LFA-1, while blanks were wells without both compound and LFA-1. Plates were mixed and incubated at 37° C. for 90 minutes. This was followed by addition of 15 μL/well TS2/4-congugated acceptor beads diluted in PBS containing 0.1% BSA for a final concentration of 10 μg/mL. The plates were mixed and incubated in the dark for 30 minutes at room temperature followed by addition of 15 μL/well streptavidin-coated donor beads diluted in PBS containing 0.1% BSA at a final concentration of 15 μg/mL. The plates were mixed and incubated in the dark for 60 minutes at room temperature and then read on an EnVision Multilabel Reader using AlphaScreen 384-well OptiPlate protocol.

Sequence of LFA-1 binding to ICAM-1 (P20701 26-1170): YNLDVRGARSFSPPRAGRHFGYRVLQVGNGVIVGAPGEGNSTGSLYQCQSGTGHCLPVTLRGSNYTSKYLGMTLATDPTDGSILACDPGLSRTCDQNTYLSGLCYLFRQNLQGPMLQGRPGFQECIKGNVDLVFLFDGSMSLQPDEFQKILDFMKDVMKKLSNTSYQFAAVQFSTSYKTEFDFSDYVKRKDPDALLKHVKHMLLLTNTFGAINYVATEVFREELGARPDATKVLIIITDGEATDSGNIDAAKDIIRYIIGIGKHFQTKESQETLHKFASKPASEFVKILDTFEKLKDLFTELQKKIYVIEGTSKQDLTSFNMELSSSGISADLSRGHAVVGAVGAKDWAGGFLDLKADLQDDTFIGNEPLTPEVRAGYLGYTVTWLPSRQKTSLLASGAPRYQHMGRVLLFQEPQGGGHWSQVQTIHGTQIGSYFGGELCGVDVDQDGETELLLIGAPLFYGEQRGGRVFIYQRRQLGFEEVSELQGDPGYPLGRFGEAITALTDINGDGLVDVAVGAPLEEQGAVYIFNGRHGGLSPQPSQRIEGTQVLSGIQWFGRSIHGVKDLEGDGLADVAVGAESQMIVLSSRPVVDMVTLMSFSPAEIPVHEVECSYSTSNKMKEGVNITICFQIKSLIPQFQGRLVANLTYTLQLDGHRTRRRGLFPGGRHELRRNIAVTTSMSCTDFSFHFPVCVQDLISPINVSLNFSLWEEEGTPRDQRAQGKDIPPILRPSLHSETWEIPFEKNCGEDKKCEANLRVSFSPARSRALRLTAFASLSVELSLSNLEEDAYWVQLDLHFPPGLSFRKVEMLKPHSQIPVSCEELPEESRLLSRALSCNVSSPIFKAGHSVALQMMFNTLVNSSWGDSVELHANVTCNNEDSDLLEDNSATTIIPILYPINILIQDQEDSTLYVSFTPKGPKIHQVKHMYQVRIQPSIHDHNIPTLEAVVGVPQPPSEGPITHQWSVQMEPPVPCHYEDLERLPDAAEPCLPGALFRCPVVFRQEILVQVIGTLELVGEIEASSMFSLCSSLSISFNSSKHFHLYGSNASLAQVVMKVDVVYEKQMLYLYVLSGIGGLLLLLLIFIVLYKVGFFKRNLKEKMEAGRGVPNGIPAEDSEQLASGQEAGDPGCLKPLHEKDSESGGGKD
Sequence of LFA-1 binding to ICAM-1 (P05107 23-769): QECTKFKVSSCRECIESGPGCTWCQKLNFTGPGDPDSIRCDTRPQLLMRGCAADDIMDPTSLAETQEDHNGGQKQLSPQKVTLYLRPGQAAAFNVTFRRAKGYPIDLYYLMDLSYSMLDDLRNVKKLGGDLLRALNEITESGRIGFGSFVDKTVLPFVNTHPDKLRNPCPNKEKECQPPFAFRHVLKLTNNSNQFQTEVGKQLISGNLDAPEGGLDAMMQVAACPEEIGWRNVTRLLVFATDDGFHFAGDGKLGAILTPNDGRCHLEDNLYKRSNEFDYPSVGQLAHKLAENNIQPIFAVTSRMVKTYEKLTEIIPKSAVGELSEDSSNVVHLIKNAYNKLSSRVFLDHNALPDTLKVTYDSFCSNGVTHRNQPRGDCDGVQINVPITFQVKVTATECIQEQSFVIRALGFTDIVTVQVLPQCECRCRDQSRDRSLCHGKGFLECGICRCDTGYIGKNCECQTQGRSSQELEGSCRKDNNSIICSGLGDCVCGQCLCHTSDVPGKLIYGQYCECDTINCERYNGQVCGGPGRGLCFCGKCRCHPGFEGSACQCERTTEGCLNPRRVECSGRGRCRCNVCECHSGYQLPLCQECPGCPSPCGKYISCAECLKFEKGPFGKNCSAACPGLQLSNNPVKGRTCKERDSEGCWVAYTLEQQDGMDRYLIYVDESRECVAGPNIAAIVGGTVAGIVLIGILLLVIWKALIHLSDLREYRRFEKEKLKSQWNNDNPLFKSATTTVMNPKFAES

Structure (SMILES) | IC50 [nM]
C[C@@]1(Cc2ccc(C#N)cc2)C(=O)N(c2cc(Cl)cc(Cl)c2)c2ncc(C(=O)NC3(C(=O)NC4(c5cc(C(=O)N6CCCC(CO)C6)ccn5)CC4)CC3)n21 (some centres unmarked) [compound 80] | 0.99
C[C@@H](NC(=O)c1ccc(C2(NC(=O)C3(NC(=O)c4cnc5n4[C@](C)(Cc4ccc(C#N)cc4)C(=O)N5c4cc(Cl)cc(Cl)c4)CC3)CC2)nc1)c1ccccc1 [compound 65] | 2.1
CC(=O)NC1CCN(C(=O)c2ccnc(C3(NC(=O)C4(NC(=O)c5cnc6n5[C@](C)(Cc5ccc(C#N)cc5)C(=O)N6c5cc(Cl)cc(Cl)c5)CC4)CC3)c2)C1 (some centres unmarked) [compound 54] | 1.2
C[C@@]1(Cc2ccc(C#N)cc2)C(=O)N(c2cc(Cl)cc(Cl)c2)c2ncc(C(=O)NC3(C(=O)NC4(c5cc(C(=O)NCC6CC6)ccn5)CC4)CC3)n21 [compound 142] | 1.3
C[C@@]1(Cc2ccc(C#N)cc2)C(=O)N(c2cc(Cl)cc(Cl)c2)c2ncc(C(=O)NC3(C(=O)NC4(c5cccc(C(=O)N6CCCC(CO)C6)n5)CC4)CC3)n21 (some centres unmarked) [compound 161] | 0.75
C[C@@H](NC(=O)c1cccc(C2(NC(=O)C3(NC(=O)c4cnc5n4[C@](C)(Cc4ccc(C#N)cc4)C(=O)N5c4cc(Cl)cc(Cl)c4)CC3)CC2)n1)C(N)=O [compound 83] | 1.3
C[C@@]1(Cc2ccc(C#N)cc2)C(=O)N(c2cc(Cl)cc(Cl)c2)c2ncc(C(=O)NC3(C(=O)NC4(c5ccc(C(=O)N6CCC[C@H]6C(N)=O)cn5)CC4)CC3)n21 [compound 8] | 1.6
CN(C)C(=O)c1ccc(C2(NC(=O)C3(NC(=O)c4cnc5n4[C@](C)(Cc4ccc(C#N)cc4)C(=O)N5c4cc(Cl)cc(Cl)c4)CC3)CC2)nc1 [compound 124] | 2.1
CN(C)C1CCN(C(=O)c2cccc(C3(NC(=O)C4(NC(=O)c5cnc6n5[C@](C)(Cc5ccc(C#N)cc5)C(=O)N6c5cc(Cl)cc(Cl)c5)CC4)CC3)n2)C1 (some centres unmarked) [compound 111] | 2.5
CC(=O)NC1CCN(C(=O)c2ccc(C3(NC(=O)C4(NC(=O)c5cnc6n5[C@](C)(Cc5ccc(C#N)cc5)C(=O)N6c5cc(Cl)cc(Cl)c5)CC4)CC3)nc2)C1 (some centres unmarked) [compound 158] | 0.9
C[C@@]1(Cc2ccc(C#N)cc2)C(=O)N(c2cc(Cl)cc(Cl)c2)c2ncc(C(=O)NC3(C(=O)NC4(c5cc(C(=O)N6CC(O)C6)ccn5)CC4)CC3)n21 [compound 87] | 0.98
CC(CO)NC(=O)c1ccc(C2(NC(=O)C3(NC(=O)c4cnc5n4[C@](C)(Cc4ccc(C#N)cc4)C(=O)N5c4cc(Cl)cc(Cl)c4)CC3)CC2)nc1 (some centres unmarked) [compound 27] | 0.74
C[C@@]1(Cc2ccc(C#N)cc2)C(=O)N(c2cc(Cl)cc(Cl)c2)c2ncc(C(=O)NC3(C(=O)NC4(c5ccc(C(=O)NC6CC6)cn5)CC4)CC3)n21 [compound 126] | 2.6
CN(C)C1CCN(C(=O)c2ccc(C3(NC(=O)C4(NC(=O)c5cnc6n5[C@](C)(Cc5ccc(C#N)cc5)C(=O)N6c5cc(Cl)cc(Cl)c5)CC4)CC3)nc2)C1 (some centres unmarked) [compound 61] | 1.8
C[C@@]1(Cc2ccc(C#N)cc2)C(=O)N(c2cc(Cl)cc(Cl)c2)c2ncc(C(=O)NC3(C(=O)NC4(c5cc(C(=O)NCc6ccco6)ccn5)CC4)CC3)n21 [compound 76] | 0.79
CC(=O)N(C)C1CCN(C(=O)c2ccc(C3(NC(=O)C4(NC(=O)c5cnc6n5[C@](C)(Cc5ccc(C#N)cc5)C(=O)N6c5cc(Cl)cc(Cl)c5)CC4)CC3)nc2)C1 (some centres unmarked) [compound 116] | 0.75
C[C@@]1(Cc2ccc(C#N)cc2)C(=O)N(c2cc(Cl)c(F)c(Cl)c2)c2ncc(C(=O)NC3(C(=O)NC4(c5ccc(C(N)=O)cn5)CC4)CC3)n21 [compound 164] | 0.82
C[C@@]1(Cc2ccc(C#N)cc2)C(=O)N(c2cc(Cl)cc(Cl)c2)c2ncc(C(=O)NC3(C(=O)NC4(c5cc(C(=O)N6CCCCC6)ccn5)CC4)CC3)n21 [compound 110] | 3.4
C[C@@]1(Cc2ccc(C#N)cc2)C(=O)N(c2cc(Cl)cc(Cl)c2)c2ncc(C(=O)NC3(C(=O)NC4(c5cccc(C(=O)N6CCC6)n5)CC4)CC3)n21 [compound 104] | 2.3
C[C@@]1(Cc2ccc(C#N)cc2)C(=O)N(c2cc(Cl)cc(Cl)c2)c2ncc(C(=O)NC3(C(=O)NC4(c5cc(C(=O)N6CC[C@@H](O)C6)ccn5)CC4)CC3)n21 [compound 168] | 3.4
C[C@@]1(Cc2ccc(C#N)cc2)C(=O)N(c2cc(Cl)cc(Cl)c2)c2ncc(C(=O)NC3(C(=O)NC4(c5ccc(C(=O)N6CCCCC6)cn5)CC4)CC3)n21 [compound 9] | 1.8
CC(NC(=O)c1ccc(C2(NC(=O)C3(NC(=O)c4cnc5n4[C@](C)(Cc4ccc(C#N)cc4)C(=O)N5c4cc(Cl)cc(Cl)c4)CC3)CC2)nc1)c1ccccn1 (some centres unmarked) [compound 155] | 0.74
CC(=O)NC1CCN(C(=O)c2cccc(C3(NC(=O)C4(NC(=O)c5cnc6n5[C@](C)(Cc5ccc(C#N)cc5)C(=O)N6c5cc(Cl)cc(Cl)c5)CC4)CC3)n2)C1 (some centres unmarked) [compound 15] | 1.5
COCCNC(=O)c1ccnc(C2(NC(=O)C3(NC(=O)c4cnc5n4[C@](C)(Cc4ccc(C#N)cc4)C(=O)N5c4cc(Cl)cc(Cl)c4)CC3)CC2)c1 [compound 100] | 0.9
C[C@@]1(Cc2ccc(C#N)cc2)C(=O)N(c2cc(Cl)cc(Cl)c2)c2ncc(C(=O)NC3(C(=O)NC4(c5cc(C(=O)N6CCC[C@H]6C(N)=O)ccn5)CC4)CC3)n21 [compound 122] | 1.7
C[C@@]1(Cc2ccc(C#N)cc2)C(=O)N(c2cc(Cl)cc(Cl)c2)c2ncc(C(=O)NC3(C(=O)NC4(c5cc(C(=O)NCCc6cccnc6)ccn5)CC4)CC3)n21 [compound 95] | 1
CN(C)C(=O)c1ccnc(C2(NC(=O)C3(NC(=O)c4cnc5n4[C@](C)(Cc4ccc(C#N)cc4)C(=O)N5c4cc(Cl)cc(Cl)c4)CC3)CC2)c1 [compound 38] | 0.87
CC(CO)NC(=O)c1ccnc(C2(NC(=O)C3(NC(=O)c4cnc5n4[C@](C)(Cc4ccc(C#N)cc4)C(=O)N5c4cc(Cl)cc(Cl)c4)CC3)CC2)c1 (some centres unmarked) [compound 120] | 0.75
C[C@@]1(Cc2ccc(C#N)cc2)C(=O)N(c2cc(Cl)cc(Cl)c2)c2ncc(C(=O)NC3(C(=O)NC4(c5cccc(C(=O)NCCC(N)=O)n5)CC4)CC3)n21 [compound 57] | 0.82

The next lines start with the values.

IC50 [nM] | Structure (SMILES)
0.34 | C[C@@]1(Cc2ccc(C#N)cc2)C(=O)N(c2cc(Cl)cc(Cl)c2)c2ncc(C(=O)NC3(C(=O)NC4(c5cccc(C(=O)NC6CC6)n5)CC4)CC3)n21 [compound 123]
0.74 | C[C@@]1(Cc2ccc(C#N)cc2)C(=O)N(c2cc(Cl)cc(Cl)c2)c2ncc(C(=O)NC3(C(=O)NC4(c5cc(C(=O)N6CCCC(C(N)=O)C6)ccn5)CC4)CC3)n21 (some centres unmarked) [compound 43]
0.41 | CC(C)(NC(=O)c1cccc(C2(NC(=O)C3(NC(=O)c4cnc5n4[C@](C)(Cc4ccc(C#N)cc4)C(=O)N5c4cc(Cl)cc(Cl)c4)CC3)CC2)n1)c1ccccc1 [compound 167]
0.37 | CC(NC(=O)c1ccc(C2(NC(=O)C3(NC(=O)c4cnc5n4[C@](C)(Cc4ccc(C#N)cc4)C(=O)N5c4cc(Cl)cc(Cl)c4)CC3)CC2)nc1)c1ccccn1 (some centres unmarked) [compound 160]
0.29 | C[C@@]1(Cc2ccc(C#N)cc2)C(=O)N(c2cc(Cl)cc(Cl)c2)c2ncc(C(=O)NC3(C(=O)NC4(c5ccc(C(=O)N6CCC6)cn5)CC4)CC3)n21 [compound 90]
0.35 | C[C@@]1(Cc2ccc(C#N)cc2)C(=O)N(c2cc(Cl)cc(Cl)c2)c2ncc(C(=O)NC3(C(=O)NC4(c5ccc(C(=O)N6CCOCC6)cn5)CC4)CC3)n21 [compound 42]
0.27 | C[C@@]1(Cc2ccc(C#N)cc2)C(=O)N(c2cc(Cl)cc(Cl)c2)c2ncc(C(=O)NC3(C(=O)NC4(c5ccc(C(=O)NCC(N)=O)cn5)CC4)CC3)n21 [compound 14]
0.28 | C[C@@]1(Cc2ccc(C#N)cc2)C(=O)N(c2cc(Cl)cc(Cl)c2)c2ncc(C(=O)NC3(C(=O)NC4(c5cccc(C(=O)N6CCC(C(N)=O)CC6)n5)CC4)CC3)n21 [compound 170]
0.25 | C[C@@]1(Cc2ccc(C#N)cc2)C(=O)N(c2cc(Cl)cc(Cl)c2)c2ncc(C(=O)NC3(C(=O)NC4(c5ccc(C(=O)NCc6ccccn6)cn5)CC4)CC3)n21 [compound 36]
0.62 | C[C@@]1(Cc2ccc(C#N)cc2)C(=O)N(c2cc(Cl)cc(Cl)c2)c2ncc(C(=O)NC3(C(=O)NC4(c5ccc(C(=O)NCCc6ccccn6)cn5)CC4)CC3)n21 [compound 93]
0.7 | CN(CCO)C(=O)c1ccnc(C2(NC(=O)C3(NC(=O)c4cnc5n4[C@](C)(Cc4ccc(C#N)cc4)C(=O)N5c4cc(Cl)cc(Cl)c4)CC3)CC2)c1 [compound 34]
0.28 | C[C@@]1(Cc2ccc(C#N)cc2)C(=O)N(c2cc(Cl)cc(Cl)c2)c2ncc(C(=O)NC3(C(=O)NC4(c5ccc(C(=O)NC(CO)CO)cn5)CC4)CC3)n21 [compound 66]
